From patent US10294202B2, “Pyrrolidinones as herbicides” (FMC Corporation, priority 2013, dated 2019)

Legend:
kochia = experiment: Test A pre-/postemergence herbicide test; type: in vivo, Kochia scoparia
Outline: (§1)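 Directed soil spray to seeded pots (preemergence) or spray onto one- to two-leaf seedlings 2–10 cm tall (postemergence); loam/sand substrate throughout. Evaluated visually after about 10 days against untreated plants, 0 = no effect, 100 = complete control.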

ducksalad = experiment: Test B flooded paddy test; type: in vivo, Heteranthera limosa; settings: 500 g ai/ha, Flood; scale of 0 to 100 where 0 is no effect and 100 is complete control
Outline: (§2)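 Scored visually 0–100 (0 no effect, 100 complete control) versus controls after 13 to 15 greenhouse days. Treatment: compound added to paddy water kept 3 cm above soil, on 2-leaf-stage plants.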

barnyardgrass [1] = experiment: Test B flooded paddy test; type: in vivo, Echinochloa crus-galli; settings: 500 g ai/ha, Flood; scale of 0 to 100 where 0 is no effect and 100 is complete control
Outline: as §2

giant foxtail = experiment: Test A pre-/postemergence herbicide test; type: in vivo, Setaria faberii
Outline: as §1

barnyardgrass [2] = experiment: Test A pre-/postemergence herbicide test; type: in vivo, Echinochloa crus-galli
Outline: as §1

blackgrass = experiment: Test A postemergence herbicide test; type: in vivo, Alopecurus myosuroides
Outline: (§3)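 Ratings compare treated with untreated plants roughly 10 days after a postemergence application made at the one- to two-leaf stage. Scoring uses 0–100, where 0 means no effect and 100 complete control.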

sedge, umbrella = experiment: Test B flooded paddy test; type: in vivo, Cyperus difformis; settings: 500 g ai/ha, Flood; scale of 0 to 100 where 0 is no effect and 100 is complete control
Outline: as §2

ryegrass, Italian = experiment: Test A pre-/postemergence herbicide test; type: in vivo, Lolium multiflorum
Outline: as §1

galium = experiment: Test A postemergence herbicide test; type: in vivo, Galium aparine
Outline: as §3

pigweed = experiment: Test A pre-/postemergence herbicide test; type: in vivo, Amaranthus retroflexus
Outline: as §1

rice = experiment: Test B flooded paddy test; type: in vivo, Oryza sativa; settings: 500 g ai/ha, Flood; scale of 0 to 100 where 0 is no effect and 100 is complete control
Outline: as §2

ragweed = experiment: Test A pre-/postemergence herbicide test; type: in vivo, Ambrosia elatior
Outline: as §1

corn = experiment: Test A pre-/postemergence herbicide test; type: in vivo, Zea mays; settings: Postemergence
Outline: as §1

wheat = experiment: Test A pre-/postemergence herbicide test; type: in vivo, Triticum aestivum; settings: Postemergence
Outline: as §1

[3] = Postemergence, 125 g ai/ha, visual rating on 0 to 100 scale (0 no effect, 100 complete control), approx. 10 days
[4] = Postemergence, 500 g ai/ha, 0 to 100 scale (0 no effect, 100 complete control)
[5] = Preemergence, 125 g ai/ha, 0 to 100 scale where 0 is no effect and 100 is complete control
[6] = preemergence, 500 g ai/ha, 0 to 100 scale, 0 is no effect and 100 is complete control
[7] = 125 g ai/ha, visual rating on 0 to 100 scale (0 no effect, 100 complete control), approx. 10 days
[8] = 500 g ai/ha, 0 to 100 scale (0 no effect, 100 complete control)
[9] = 125 g ai/ha, visual rating, 0 to 100 scale, 0 no effect, 100 complete control, approximately 10 days, preemergence
[10] = Postemergence, 125 g ai/ha, 0 to 100 scale, 0 is no effect, 100 is complete control
[11] = 125 g ai/ha, 0 to 100 scale, 0 is no effect, 100 is complete control

O=C1NCC(c2ccc(Cl)o2)C1C(=O)Nc1ccccc1F (stereo not drawn) [Compound 284]
40: Plant response rating, Foxtail, Giant (giant foxtail; [5]) | Plant response rating, Pigweed (pigweed; [6])
50: Plant response rating, Barnyardgrass (barnyardgrass [2]; [4])
80: Plant response rating, Ducksalad (ducksalad)
60: Plant response rating, Barnyardgrass (barnyardgrass [2]; [6]) | Plant response rating, Galium (galium; [8])
0: Plant response rating, Kochia (kochia; [3]) | Plant response rating, Kochia (kochia; [4]) | Plant response rating, Kochia (kochia; [5]) | Plant response rating, Barnyardgrass (barnyardgrass [1]) | Plant response rating, Foxtail, Giant (giant foxtail; [3]) | Plant response rating, Barnyardgrass (barnyardgrass [2]; [3]) | Plant response rating, Barnyardgrass (barnyardgrass [2]; [5]) | Plant response rating, Blackgrass (blackgrass; [7]) | Plant response rating, Blackgrass (blackgrass; [8]) | Plant response rating, Sedge, Umbrella (sedge, umbrella) | Plant response rating, Ryegrass, Italian (ryegrass, Italian; [3]) | Plant response rating, Ryegrass, Italian (ryegrass, Italian; [4]) | Plant response rating, Ryegrass, Italian (ryegrass, Italian; [5]) | Ryegrass, Italian plant response rating (ryegrass, Italian; Preemergence, 500 g ai/ha, visual rating on 0 to 100 scale (0 no effect, 100 complete control)) | Plant response rating, Galium (galium; [7]) | Plant response rating, Pigweed (pigweed; [3]) | Plant response rating, Pigweed (pigweed; [4]) | Plant response rating, Pigweed (pigweed; [5]) | Plant response rating, Ragweed (ragweed; [3]) | Plant response rating, Ragweed (ragweed; [4]) | Plant response rating, Ragweed (ragweed; [5]) | Plant response rating, Ragweed (ragweed; [6]) | Plant response rating, Corn (corn; [7]) | Plant response rating, Corn (corn; [8]) | Plant response rating, Wheat (wheat; [7]) | Plant response rating, Wheat (wheat; [8])
70: Plant response rating, Foxtail, Giant (giant foxtail; [6])
10: Plant response rating, Foxtail, Giant (giant foxtail; [4]) | Plant response rating, Rice (rice)
30: Plant response rating, Kochia (kochia; [6])

CCc1cccc(C2CNC(=O)C2C(=O)Nc2ccccc2F)c1 (racemic) [Compound 169]
30: Plant response rating, Blackgrass (blackgrass; [11])
20: Plant response rating, Ryegrass, Italian (ryegrass, Italian; [10]) | Plant response rating, Ryegrass, Italian (ryegrass, Italian; [6]) | Plant response rating, Galium (galium; [11]) | Plant response rating, Pigweed (pigweed; [6]) | Plant response rating, Ragweed (ragweed; [6])
60: Plant response rating, Kochia (kochia; [6]) | Plant response rating, Foxtail, Giant (giant foxtail; [10]) | Blackgrass plant response rating (0 to 100 scale, 0 is no effect, 100 is complete control) (blackgrass; 500 g ai/ha)
90: Foxtail, Giant plant response rating (0 to 100 scale, 0 is no effect, 100 is complete control) (giant foxtail; Postemergence, 500 g ai/ha) | Plant response rating, Foxtail, Giant (giant foxtail; preemergence, 500 g ai/ha, 0 to 100 scale) | Plant response rating, Barnyardgrass (barnyardgrass [2]; [9]) | Plant response rating, Barnyardgrass (barnyardgrass [2]; [10]) | Barnyardgrass plant response rating (0 to 100 scale, 0 is no effect, 100 is complete control) (barnyardgrass [2]; Postemergence, 500 g ai/ha) | Plant response rating, Barnyardgrass (barnyardgrass [2]; preemergence, 500 g ai/ha, 0 to 100 scale (0 no effect, 100 complete control))
0: Plant response rating, Kochia (kochia; [10]) | Plant response rating, Sedge, Umbrella (sedge, umbrella) | Plant response rating, Ryegrass, Italian (ryegrass, Italian; [9]) | Plant response rating, Pigweed (pigweed; [9]) | Plant response rating, Pigweed (pigweed; [10]) | Pigweed plant response rating (0 to 100 scale, 0 is no effect, 100 is complete control) (pigweed; Postemergence, 500 g ai/ha) | Plant response rating, Rice (rice) | Plant response rating, Ragweed (ragweed; [9]) | Plant response rating, Ragweed (ragweed; [10]) | Ragweed plant response rating (0 to 100 scale, 0 is no effect, 100 is complete control) (ragweed; Postemergence, 500 g ai/ha) | Plant response rating, Corn (corn; [11]) | Plant response rating, Wheat (wheat; [11])
50: Galium plant response rating (0 to 100 scale, 0 is no effect, 100 is complete control) (galium; 500 g ai/ha) | Corn plant response rating (0 to 100 scale, 0 is no effect, 100 is complete control) (corn; 500 g ai/ha) | Wheat plant response rating (0 to 100 scale, 0 is no effect, 100 is complete control) (wheat; 500 g ai/ha)
100: Plant response rating, Ducksalad (ducksalad)
40: Plant response rating, Kochia (kochia; [9]) | Kochia plant response rating (0 to 100 scale, 0 is no effect, 100 is complete control) (kochia; Postemergence, 500 g ai/ha) | Ryegrass, Italian plant response rating (0 to 100 scale, 0 is no effect, 100 is complete control) (ryegrass, Italian; Postemergence, 500 g ai/ha)
80: Plant response rating, Barnyardgrass (barnyardgrass [1]) | Plant response rating, Foxtail, Giant (giant foxtail; [9])
